Results from patent US20200009121A1, “Purpose for Soothing Brain Disorders of Patients from Drug Detoxification Using Biperiden HCL” (priority 2018, published 2020).
Structures can show the parent of a compound that is named as a salt.

Tested on: brain disorders of patients from drug detoxification
Assay: Biperiden Hcl given to patients after block-out of poisoning pathway (drug detoxification) treatment
Assay type: in vivo
Conditions: dose 10 mg/ml
Experimental: A Biperiden Hcl 10 medicine of the disclosure is a cure of Parkinson's disease and can reduce effect of acetylcholine of Extrapyramidal Symptoms (EPS) on it to further decrease excitement of central nervous. […] With reference to FIG. 1, a Biperiden Hcl 10 medicine is applied after patients are treated with block-out of poisoning pathway, wherein poisoning pathway treatment 20 can adapt intravenous drip prescription 30 disclosed in U.S. utility patent application Ser. No.10/004,781 owned by the inventor(s) and purpose treatment thereof, providing the intravenous drip prescription 30 to patients. The intravenous drip prescription 30 comprises a plurality of ingredients consisting of Cerebrolysin, Piracetam, Cimetidine, Scopolamine Butylbromide, Nefopam, B. C Complex, Vitamin B1, Ascorbic acid, Ketorolac, Guronsan, Hyoscien Butylbromide, and Sukerin. After a patient is dealt with poisoning pathway treatment 20, a dose (10 mg/ml) of Biperiden Hcl 10 is provided to the patient to sooth brain disorder of the patient from the poisoning pathway treatment 20 of the patient, capable of rapidly recovering consciousness and normal physiological state.

OC(CCN1CCCCC1)(c1ccccc1)C1CC2C=CC1C2 (stereo not shown) [Biperiden Hcl]
soothing brain disorders of patients and recovering consciousness and normal physiological state: excellent effect of soothing brain disorders of patients and recovering consciousness and normal physiological state
